Experimental data reported in patent US10626144B2, “Peptide derivatives and uses thereof” (Nosopharm, priority 2014, dated 2020).
Numbered stars: 1 amine (or outer) side, 2 acyl side, 3 side chain; on linkers, the order of the positions; unused ones are H or OH. Square brackets hold non-standard residues; d marks the D form. Peptide text beside a SMILES is read from it. * marks the point of attachment. Phe(3,4-(OMe)2) = COc1ccc(C[C@H](N)C(=O)O)cc1OC; Phe(3-CONH2) = NC(=O)c1cccc(C[C@H](N)C(=O)O)c1; Pro(trans-4-F) = O=C(O)[C@@H]1C[C@@H](F)CN1; Abu(4,4,4-F3) = N[C@@H](CC(F)(F)F)C(=O)O; Phe(4-CN) = N#Cc1ccc(C[C@H](N)C(=O)O)cc1; X6 = NC[C@@H](O)[C@@H](N[*:1])C(=O)[*:2]; Phe(3-F) = N[C@@H](Cc1cccc(F)c1)C(=O)O; Phe(3-Me) = Cc1cccc(C[C@H](N)C(=O)O)c1; Dab(3S-OH) = NC[C@H](O)[C@H](N)C(=O)O; Phe(2-F) = N[C@@H](Cc1ccccc1F)C(=O)O; ΔZArg = N=C(N)NCC/C=C(\N)C(=O)O; dOrn = NCCC[C@@H](N)C(=O)O; Pip = O=C(O)[C@@H]1CCCCN1; NH(CH2)5NH2 = NCCCCCN*; NH(CH2)4NH2 = NCCCCN*

Assays:
Test in all cases: MIC, broth microdilution (CLSI), reference strain
Conditions in all cases: CAMHB
[1] = test system: Pseudomonas aeruginosa ATCC 27853
[2] = test system: Escherichia coli ATCC 25922
[3] = test system: Staphylococcus aureus ATCC 13709
[4] = test system: Acinetobacter baumannii ATCC 19606

Pa: MIC Pseudomonas aeruginosa ATCC 27853 [1]	Ec: MIC Escherichia coli ATCC 25922 [2]	Sa: MIC Staphylococcus aureus ATCC 13709 [3]	Ab: MIC Acinetobacter baumannii ATCC 19606 [4]	SMILES
− (>32 μg/mL)	++ (≤8 μg/mL)	++ (≤8 μg/mL)	− (>32 μg/mL)	N=C(N)NCC/C=C(\NC(=O)[C@H](CCCCN)NC(=O)[C@H](Cc1cnc[nH]1)NC(=O)[C@@H]1CCCN1C(=O)[C@@H](CCCN)NC(=O)CNC(=O)[C@@H](NC(=O)[C@@H](NC(=O)[C@@H](N)CCCCN)[C@@H](O)CN)[C@@H](O)CN)C(N)=O [22.31] (H-K[Dab(3S-OH)][Dab(3S-OH)]G[dOrn]PHK[ΔZArg]-NH2)
− (>32 μg/mL)	− (>32 μg/mL)	++ (≤8 μg/mL)	− (>32 μg/mL)	N=C(N)NCC/C=C(\NC(=O)[C@H](CCCCN)NC(=O)[C@H](Cc1cnc[nH]1)NC(=O)[C@@H]1CCCN1C(=O)[C@@H](CCCN)NC(=O)CNC(=O)[C@H](NC(=O)[C@@H](NC(=O)[C@@H](N)CCCCN)[C@@H](O)CN)[C@H](O)CN)C(=O)N[C@@H](CCCCN)C(=O)NCCCCN [22.32] (H-K[Dab(3S-OH)][X6]G[dOrn]PHK[ΔZArg]K-{NH(CH2)4NH2})
− (>32 μg/mL)	++ (≤8 μg/mL)	++ (≤8 μg/mL)	− (>32 μg/mL)	N=C(N)NCC/C=C(\NC(=O)[C@H](CCCCN)NC(=O)[C@H](Cc1ccccc1F)NC(=O)[C@@H]1CCCN1C(=O)[C@@H](CCCN)NC(=O)CNC(=O)[C@@H](NC(=O)[C@@H](NC(=O)[C@@H](N)CCCCN)[C@@H](O)CN)[C@@H](O)CN)C(=O)O [22.33] (H-K[Dab(3S-OH)][Dab(3S-OH)]G[dOrn]P[Phe(2-F)]K[ΔZArg]-OH)
− (>32 μg/mL)	++ (≤8 μg/mL)	++ (≤8 μg/mL)	− (>32 μg/mL)	COc1ccc(C[C@H](NC(=O)[C@@H]2CCCN2C(=O)[C@@H](CCCN)NC(=O)CNC(=O)[C@@H](NC(=O)[C@@H](NC(=O)[C@@H](N)CCCCN)[C@@H](O)CN)[C@@H](O)CN)C(=O)N[C@@H](CCCCN)C(=O)N/C(=C\CCNC(=N)N)C(=O)O)cc1OC [22.34] (H-K[Dab(3S-OH)][Dab(3S-OH)]G[dOrn]P[Phe(3,4-(OMe)2)]K[ΔZArg]-OH)
− (>32 μg/mL)	− (>32 μg/mL)	− (>32 μg/mL)	− (>32 μg/mL)	N=C(N)NCC/C=C(\NC(=O)[C@H](CCCCN)NC(=O)[C@H](Cc1cccc(C(N)=O)c1)NC(=O)[C@@H]1CCCN1C(=O)[C@@H](CCCN)NC(=O)CNC(=O)[C@@H](NC(=O)[C@@H](NC(=O)[C@@H](N)CCCCN)[C@@H](O)CN)[C@@H](O)CN)C(=O)O [22.35] (H-K[Dab(3S-OH)][Dab(3S-OH)]G[dOrn]P[Phe(3-CONH2)]K[ΔZArg]-OH)
− (>32 μg/mL)	++ (≤8 μg/mL)	++ (≤8 μg/mL)	− (>32 μg/mL)	N=C(N)NCC/C=C(\NC(=O)[C@H](CCCCN)NC(=O)[C@H](Cc1cccc(F)c1)NC(=O)[C@@H]1CCCN1C(=O)[C@@H](CCCN)NC(=O)CNC(=O)[C@@H](NC(=O)[C@@H](NC(=O)[C@@H](N)CCCCN)[C@@H](O)CN)[C@@H](O)CN)C(=O)O [22.36] (H-K[Dab(3S-OH)][Dab(3S-OH)]G[dOrn]P[Phe(3-F)]K[ΔZArg]-OH)
− (>32 μg/mL)	+ (≤32 μg/mL)	++ (≤8 μg/mL)	− (>32 μg/mL)	Cc1cccc(C[C@H](NC(=O)[C@@H]2CCCN2C(=O)[C@@H](CCCN)NC(=O)CNC(=O)[C@@H](NC(=O)[C@@H](NC(=O)[C@@H](N)CCCCN)[C@@H](O)CN)[C@@H](O)CN)C(=O)N[C@@H](CCCCN)C(=O)N/C(=C\CCNC(=N)N)C(=O)O)c1 [22.37] (H-K[Dab(3S-OH)][Dab(3S-OH)]G[dOrn]P[Phe(3-Me)]K[ΔZArg]-OH)
− (>32 μg/mL)	++ (≤8 μg/mL)	++ (≤8 μg/mL)	− (>32 μg/mL)	N#Cc1ccc(C[C@H](NC(=O)[C@@H]2CCCN2C(=O)[C@@H](CCCN)NC(=O)CNC(=O)[C@@H](NC(=O)[C@@H](NC(=O)[C@@H](N)CCCCN)[C@@H](O)CN)[C@@H](O)CN)C(=O)N[C@@H](CCCCN)C(=O)N/C(=C\CCNC(=N)N)C(=O)O)cc1 [22.38] (H-K[Dab(3S-OH)][Dab(3S-OH)]G[dOrn]P[Phe(4-CN)]K[ΔZArg]-OH)
− (>32 μg/mL)	+ (≤32 μg/mL)	++ (≤8 μg/mL)	− (>32 μg/mL)	COc1ccc(C[C@H](NC(=O)[C@@H]2CCCN2C(=O)[C@@H](CCCN)NC(=O)CNC(=O)[C@@H](NC(=O)[C@@H](NC(=O)[C@@H](N)CCCCN)[C@@H](O)CN)[C@@H](O)CN)C(=O)N[C@@H](CCCCN)C(=O)N/C(=C\CCNC(=N)N)C(=O)O)cc1 [22.39] (H-K[Dab(3S-OH)][Dab(3S-OH)]G[dOrn]PY(Me)K[ΔZArg]-OH)
− (>32 μg/mL)	+ (≤32 μg/mL)	++ (≤8 μg/mL)	− (>32 μg/mL)	N=C(N)NCC/C=C(\NC(=O)[C@H](CCCCN)NC(=O)[C@H](CC(F)(F)F)NC(=O)[C@@H]1CCCN1C(=O)[C@@H](CCCN)NC(=O)CNC(=O)[C@@H](NC(=O)[C@@H](NC(=O)[C@@H](N)CCCCN)[C@@H](O)CN)[C@@H](O)CN)C(=O)O [22.40] (H-K[Dab(3S-OH)][Dab(3S-OH)]G[dOrn]P[Abu(4,4,4-F3)]K[ΔZArg]-OH)
− (>32 μg/mL)	++ (≤8 μg/mL)	++ (≤8 μg/mL)	− (>32 μg/mL)	N=C(N)NCC/C=C(\NC(=O)[C@H](CCCCN)NC(=O)[C@H](Cc1c[nH]c2ccccc12)NC(=O)[C@@H]1CCCN1C(=O)[C@@H](CCCN)NC(=O)CNC(=O)[C@@H](NC(=O)[C@@H](NC(=O)[C@@H](N)CCCCN)[C@@H](O)CN)[C@@H](O)CN)C(=O)O [22.41] (H-K[Dab(3S-OH)][Dab(3S-OH)]G[dOrn]PWK[ΔZArg]-OH)
− (>32 μg/mL)	++ (≤8 μg/mL)	++ (≤8 μg/mL)	− (>32 μg/mL)	N=C(N)NCC/C=C(\NC(=O)[C@H](CCCCN)NC(=O)[C@H](Cc1cnc[nH]1)NC(=O)[C@@H]1CCCN1C(=O)[C@@H](CCCN)NC(=O)CNC(=O)CNC(=O)[C@@H](NC(=O)[C@@H](N)CCCCN)[C@@H](O)CN)C(=O)N[C@@H](CCCCN)C(=O)NCCCCN [23.1] (H-K[Dab(3S-OH)]GG[dOrn]PHK[ΔZArg]K-{NH(CH2)4NH2})
+ (≤32 μg/mL)	++ (≤8 μg/mL)	++ (≤8 μg/mL)	− (>32 μg/mL)	C[C@H](NC(=O)[C@@H](NC(=O)[C@@H](N)CCCCN)[C@@H](O)CN)C(=O)NCC(=O)N[C@H](CCCN)C(=O)N1CCC[C@H]1C(=O)N[C@@H](Cc1cnc[nH]1)C(=O)N[C@@H](CCCCN)C(=O)N/C(=C\CCNC(=N)N)C(=O)N[C@@H](CCCCN)C(N)=O [24.2] (H-K[Dab(3S-OH)]AG[dOrn]PHK[ΔZArg]K-NH2)
+ (≤32 μg/mL)	++ (≤8 μg/mL)	++ (≤8 μg/mL)	− (>32 μg/mL)	C[C@H](NC(=O)[C@@H](NC(=O)[C@@H](N)CCCCN)[C@@H](O)CN)C(=O)NCC(=O)N[C@H](CCCN)C(=O)N1CCCC[C@H]1C(=O)N[C@@H](Cc1cnc[nH]1)C(=O)N[C@@H](CCCCN)C(=O)N/C(=C\CCNC(=N)N)C(=O)N[C@@H](CCCCN)C(=O)NCCCCN [24.3] (H-K[Dab(3S-OH)]AG[dOrn][Pip]HK[ΔZArg]K-{NH(CH2)4NH2})
+ (≤32 μg/mL)	++ (≤8 μg/mL)	++ (≤8 μg/mL)	+ (≤32 μg/mL)	C[C@H](NC(=O)[C@@H](NC(=O)[C@@H](N)CCCCN)[C@@H](O)CN)C(=O)NCC(=O)N[C@H](CCCN)C(=O)N1C[C@H](F)C[C@H]1C(=O)N[C@@H](Cc1cnc[nH]1)C(=O)N[C@@H](CCCCN)C(=O)N/C(=C\CCNC(=N)N)C(=O)N[C@@H](CCCCN)C(=O)NCCCCN [24.4] (H-K[Dab(3S-OH)]AG[dOrn][Pro(trans-4-F)]HK[ΔZArg]K-{NH(CH2)4NH2})
++ (≤8 μg/mL)	++ (≤8 μg/mL)	++ (≤8 μg/mL)	+ (≤32 μg/mL)	C[C@H](NC(=O)[C@@H](NC(=O)[C@@H](N)CCCCN)[C@@H](O)CN)C(=O)NCC(=O)N[C@H](CCCN)C(=O)N1CCC[C@H]1C(=O)N[C@@H](Cc1cnc[nH]1)C(=O)N[C@@H](CCCCN)C(=O)N/C(=C\CCNC(=N)N)C(=O)N[C@@H](CCCCN)C(=O)NCCCCCN [24.6] (H-K[Dab(3S-OH)]AG[dOrn]PHK[ΔZArg]K-{NH(CH2)5NH2})
− (>32 μg/mL)	++ (≤8 μg/mL)	++ (≤8 μg/mL)	− (>32 μg/mL)	C[C@H](NC(=O)/C(=C/CCNC(=N)N)NC(=O)[C@H](CCCCN)NC(=O)[C@H](Cc1cnc[nH]1)NC(=O)[C@@H]1CCCN1C(=O)[C@@H](CCCN)NC(=O)CNC(=O)[C@H](C)NC(=O)[C@@H](NC(=O)[C@@H](N)CCCCN)[C@@H](O)CN)C(N)=O [24.7] (H-K[Dab(3S-OH)]AG[dOrn]PHK[ΔZArg]A-NH2)
